Counter-ions that a name gives are not always drawn.

For one assay, the system named is mice. Description: 2-phenyl-1,4-benzoquinone-induced writhing test in mice (analgesia). The class given is in vivo. The following applies: Mus musculus, sc, read-out: Dose (subcutaneous) [ED50], inhibition of writhing.
Turning to `CC(=O)n1nc(N2CCN(C)CC2)c2ccccc21` [1-Acetyl-3-(4-methyl-1-piperazinyl)-1H-indazole], the ED50 (as a rule, the dose at which the effect has come halfway, by size or by number of responders) was found to be 2.1 mg/kg.
As for `CN1CCN(c2n[nH]c3ccccc23)CC1` [3-(4-methyl-1-piperazinyl)-1H-indazole, 3-(4-Methyl-1-piperazinyl)-1H-indazole], the ED50 is 0.04 mg/kg.
The same measure, in the same setting: the figure for `CCn1nc(N2CCN(C)CC2)c2ccccc21` [1-ethyl-3-(4-methyl-1-piperazinyl)-1H-indazole] is 0.5 mg/kg; for `CCC(=O)O[C@](Cc1ccccc1)(c1ccccc1)[C@H](C)CN(C)C` [propoxyphene, reference compound] it is 3.9 mg/kg.
On the same count and under the same terms, the same measure for `c1ccc2c(N3CCNCC3)n[nH]c2c1` [3-(1-piperazinyl)-1H-indazole, 3-(1-Piperazinyl)-1H-indazole]: 0.9 mg/kg; for `CN1CCN(c2n[nH]c3ccc(Cl)cc23)CC1` [5-Chloro-3-(4-methyl-1-piperazinyl)-1H-indazole]: 6.8 mg/kg.

Staying with this assay, now noted: Mus musculus, sc; mice, subcutaneous, 2-phenyl-1,4-benzoquinone-induced writhing; read-out: Dose (subcutaneous) [ED50], inhibition of writhing.
In the case of `O=C1CC2(CCCC2)CC(=O)N1CCCCN1CCN(c2n[nH]c3ccccc23)CC1` [8-[4-[1-(1H-indazol-3-yl)-4-piperazinyl]butyl-8-azaspiro[4.5]decane-7,9-dione hemifumarate], the ED50 turned out to be 0.07 mg/kg.
Same read-out and setting: the same measure for `Fc1ccc(C(CCCN2CCN(c3n[nH]c4ccccc34)CC2)c2ccc(F)cc2)cc1` [3-[4-[4,4-Bis(4-fluorophenyl)butyl-1-piperazinyl]-1H-indazole hydrochloride]: 3.6 mg/kg; for `CN1CCN(c2nn(CC3CC3)c3ccccc23)CC1` [1-Cyclopropylmethyl-3-(4-methyl-1-piperazinyl)-1H-indazole]: 1.5 mg/kg; for `CN1CCN(c2nn(C(=O)c3ccccc3)c3cc(F)ccc23)CC1` [1-Benzoyl-6-fluoro-3-(4-methyl-1-piperazinyl)-1H-indazole]: 4.3 mg/kg.
On the same count and under the same terms, the figure for `Cl.Cl.OCCN1CCN(c2n[nH]c3ccccc23)CC1` [3-[4-(2-Hydroxyethyl)-1-piperazinyl]-1H-indazole dihydrochloride] is 2 mg/kg.

A further assay concerns mice. The experiment in a line: climbing mice assay (apomorphine-induced climbing; antipsychotic activity). The class given is in vivo, CK-1 male mice. The following applies: Mus musculus, ip, read-out: Antipsychotic Activity (Climbing Mice Assay) ED50. The procedure: Antipsychotic activity is determined in the climbing mice assay by methods similar to those described by P. Protais, et al., Psychopharmacol, 50, 1 (1976) and B. Costall, Eur. J. Pharmacol., 50, 39 (1978).
The subject CK-1 male mice (23-27 grams) are group-housed under standard laboratory conditions. The mice are individually placed in wire mesh stick cages (4"×4"×10") and are allowed one hour for adaptation and exploration of the new environment. Then apomorphine is injected subcutaneously at 1.5 mg/kg, a dose causing climbing in all subjects for 30 minutes. Compounds to be tested for antipsychotic activity are injected intraperitoneally 30 minutes prior to the apomorphine challenge at a screening dose of 10 mg/kg.
For evaluation of climbing, 3 readings are taken at 10, 20 and 30 minutes after apomorphine administration according to the following scale:
4 paws on bottom (no climbing)
2 paws on the wall (rearing)
4 paws on the wall (full climb)
Mice consistently climbing before the injection of apomorphine are discarded.
With full-developed apomorphine climbing, the animals are hanging onto the cage walls, rather motionless over longer periods of time. By contrast, climbs due to mere motor stimulation usually last only a few seconds.
The climbing scores are individually totaled (maximum score: 6 per mouse over 3 readings) and the total score of the control group (vehicle intraperitoneally-apomorphine subcutaneously) is set to 100%. ED50 values with 95% confidence limits, calculated by a linear regression analysis of some of the compounds of this invention are presented in Table II.
As for `Cl.Fc1ccc2c(N3CCNCC3)n[nH]c2c1` [6-Fluoro-3-(1-piperazinyl)-1H-indazole Hydrochloride], the ED50 amounted to 6.4 mg/kg.
With `CN1CCN(c2n[nH]c3cc(F)ccc23)CC1` [6-Fluoro-3-(4-methyl-1-piperazinyl)-1H-indazole], the ED50 came to 4.7 mg/kg.
`O=C(CCCN1CCC(O)(c2ccc(Cl)cc2)CC1)c1ccc(F)cc1` [haloperidol, reference compound]: the ED50 stood at 0.11 mg/kg.

The same assay, now with this note: Mus musculus; male mice, ip 30 min before apomorphine 1.5 mg/kg sc; linear regression; read-out: Antipsychotic Activity (Climbing Mice Assay) ED50.
For `O=C1CC2(CCCC2)CC(=O)N1CCCCN1CCN(c2n[nH]c3ccccc23)CC1` [8-[4-[1-(1H-indazol-3-yl)-4-piperazinyl]butyl-8-azaspiro[4.5]decane-7,9-dione hemifumarate], the ED50 is 0.6 mg/kg.
As for `Fc1ccc(C(CCCN2CCN(c3n[nH]c4ccccc34)CC2)c2ccc(F)cc2)cc1` [3-[4-[4,4-Bis(4-fluorophenyl)butyl-1-piperazinyl]-1H-indazole hydrochloride], the ED50 was determined as 0.87 mg/kg.
In the case of `Cc1[nH]c2ccccc2c1CCCN1CCN(c2n[nH]c3ccccc23)CC1` [3-{4-[3-(2-Methylindol-3-yl)propyl]-1-piperazinyl}-1H-indazole hemifumarate], the ED50 was 0.4 mg/kg.
Regarding `O=c1[nH]c2ccccc2n1CCCN1CCN(c2n[nH]c3cc(F)ccc23)CC1` [6-Fluoro-3-{4-[3-(1,3-dihydro-2-oxo-2H-benzimidazol-1-yl)propyl]-1-piperazinyl}-1H-indazole Hemifumarate], the median effective dose (ED50) worked out at 0.43 mg/kg.
`Cn1nc(N2CCN(CCCCN3C(=O)CC4(CCCC4)CC3=O)CC2)c2ccccc21` [8-[4-[1-(1-Methyl-1H-indazol-3-yl)-4-piperazinyl]butyl-8-azaspiro[4,5]decane-7,9-dione fumarate]: the ED50 worked out at 7.3 mg/kg.

Values taken from patent US5077405A, “3-(1-Substituted-4-piperazinyl)-1H-indazoles” (Hoechst-Roussel Pharmaceuticals Incorporated, priority 1990, dated 1991).
